The nature of data set [1]: Steady-state fluorescence spectroscopy (excitation and emission spectra). The data set is classed as physicochemical. The settings on record: for Emission range in parenthesis / Emission λmax / Excitation range in parenthesis / Excitation λmax: acetonitrile/2% DMSO. As for the experimental part:
Steady-state fluorescence measurements are performed on a SLM 8000C spectro-fluorometer equipped with JD490 photomultipliers and a 450 W Xenon Arclamp (SLM Instruments, Urbana, Ill.).
[…] Spectral bandwidths are set to 1 and 4 nm for excitation and emission, respectively. Spectra are recorded in single photon counting mode. Changes in lamp intensity are corrected with a quantum counter in the reference channel, measured in slow mode. Gain is set to x 100 with a high voltage (HV) of 640 V. Integration time is 2 seconds. For excitation spectra measurements, the emission wavelength is set to 397 nm and the sample is excited from 200 to 400 nm. For recording emission spectra, the sample is excited at 342 nm and the emission is recorded from 350 to 540 nm. The data are averaged over two scans.

The nature of data set [2]: UV-Vis absorption spectroscopy. The data set is classed as physicochemical. The settings on record: acetonitrile/2% DMSO. As for the experimental part:
UV-Vis absorption spectroscopy is performed on a Cary 1E spectrophotometer. […]
[…] […] From each stock solution, 5 dilutions with concentrations of 2.5 μm, 10 μM, 17 μM, 25 μm and 35 μM are made. UV-spectra of each dilution are recorded from 200 to 400 nm, using a quarz cuvette with a pathlength of 1 cm. […] A linear fit is carried out for each series of measurements. The extinction coefficient ε at 337 nm is given by the slope of the linear regression.

Structures are written as SMILES.

Here are results for twelve molecules from US20010005752A1, “Fluorescent dyes (AIDA) for solid phase and solution phase screening” (priority 1998, published 2001).

Regarding `O=C(O)c1ccc(-n2nc(-c3ccccc3)c3ccc4ccccc4c32)cc1` [4-(3-phenyl-benzo[g]indazol-1-yl)-benzoic acid, reference compound], the “fluorescence emission (relative to 1,3-diaryl-1H-indazoles)” value in data set [1] was “dramatically reduced”.
For the molecule `O=C(O)c1ccc(-n2nc(-c3ccccc3)c3ccccc32)cc1` [4a], in data set [2], the “Absorption λmax” value is reported as 328 nm and the “ε (at absorption λmax)” value was 22569 M⁻¹ cm⁻¹. Also, in data set [1], the “Emission range in parenthesis” value was 360-450 nm, the “Emission λmax” value amounted to 396 nm, the “Excitation range in parenthesis” value is 300-340 nm and the “Excitation λmax” value was 328 nm.
Regarding `O=C(O)c1ccc(-c2nn(-c3ccc(C(=O)O)cc3)c3ccccc23)cc1` [4b, 1,3-Bis-(4-carboxyphenyl)-1H-indazole], in data set [2], the “Absorption λmax” value stood at 334 nm and the “ε (at absorption λmax)” value is 29152 M⁻¹ cm⁻¹. Further, in data set [1], the “Emission range in parenthesis” value is listed as 360-500 nm, the “Emission λmax” value was 396 nm, the “Excitation range in parenthesis” value is on record as 300-360 nm and the “Excitation λmax” value was determined as 335 nm.
Take `NC(=O)c1ccc(-c2nn(-c3ccc(C(=O)O)cc3)c3ccccc23)cc1` [4c, 4-[3-(4-carbamoyl-phenyl)-1H-indazol-1-yl]-benzoic acid]: in data set [2], the “Absorption λmax” value stood at 332 nm and the “ε (at absorption λmax)” value amounted to 30665 M⁻¹ cm⁻¹. For the same molecule, in data set [1], the “Emission range in parenthesis” value is on record as 360-500 nm, the “Emission λmax” value was determined as 393 nm, the “Excitation range in parenthesis” value was 300-360 nm and the “Excitation λmax” value worked out at 334 nm.
Take `COC(=O)c1ccc(-c2nn(-c3ccc(C(=O)O)cc3)c3ccccc23)cc1` [4d]: in data set [2], the “Absorption λmax” value came to 334 nm and the “ε (at absorption λmax)” value was 33114 M⁻¹ cm⁻¹. Besides, in data set [1], the “Emission range in parenthesis” value was 360-500 nm, the “Emission λmax” value worked out at 396 nm, the “Excitation range in parenthesis” value is given as 300-360 nm and the “Excitation λmax” value is 336 nm.
For `O=C(O)c1ccc(-n2nc(-c3ccc([N+](=O)[O-])cc3)c3ccccc32)cc1` [4f], in data set [2], the “Absorption λmax” value is reported as 354 nm and the “ε (at absorption λmax)” value was 25482 M⁻¹ cm⁻¹. Further, in data set [1], the “Emission range in parenthesis” value is 470-670 nm, the “Emission λmax” value was 554 nm, the “Excitation range in parenthesis” value is listed as 320-400 nm and the “Excitation λmax” value worked out at 368 nm.
With `O=C(O)c1ccc(-n2nc(-c3ccc(Cl)cc3)c3ccc(Cl)cc32)cc1` [4g], in data set [2], the “Absorption λmax” value worked out at 328 nm and the “ε (at absorption λmax)” value was found to be 29157 M⁻¹ cm⁻¹. For the same molecule, in data set [1], the “Emission range in parenthesis” value was 350-450 nm, the “Emission λmax” value amounted to 364 nm, the “Excitation range in parenthesis” value was 310-350 nm and the “Excitation λmax” value was 328 nm.
`COc1ccc(-c2nn(-c3ccc(C(=O)O)cc3)c3cc(OC)ccc23)cc1` [4h]: in data set [2], the “Absorption λmax” value was 327 nm and the “ε (at absorption λmax)” value was determined as 27650 M⁻¹ cm⁻¹. Besides, in data set [1], the “Emission range in parenthesis” value was 370-600 nm, the “Emission λmax” value was 439 nm, the “Excitation range in parenthesis” value is recorded as 300-350 nm and the “Excitation λmax” value stood at 330 nm.
Regarding `O=C(O)c1ccc(-c2nn(-c3ccc([N+](=O)[O-])cc3)c3ccccc23)cc1` [4i], in data set [2], the “Absorption λmax” value was 361 nm and the “ε (at absorption λmax)” value turned out to be 31261 M⁻¹ cm⁻¹. Also, in data set [1], the “Emission range in parenthesis” value is on record as 470-670 nm, the “Emission λmax” value stood at 551 nm, the “Excitation range in parenthesis” value is on record as 320-420 nm and the “Excitation λmax” value was determined as 374 nm.
On to `Cc1ccc2c(-c3ccc([N+](=O)[O-])cc3)nn(-c3ccc(C(=O)O)cc3)c2c1` [4j], for which, in data set [2], the “Absorption λmax” value worked out at 358 nm and the “ε (at absorption λmax)” value was found to be 24967 M⁻¹ cm⁻¹. Further, in data set [1], the “Emission range in parenthesis” value was 490-700 nm, the “Emission λmax” value was 565 nm, the “Excitation range in parenthesis” value is reported as 340-420 nm and the “Excitation λmax” value is listed as 370 nm.
Consider `O=C(O)c1ccc(-c2nn(-c3ccc(C(=O)O)cc3)c3ccc([N+](=O)[O-])cc23)cc1` [4k, 4-[3-(4-carboxy-phenyl)-5-nitro-1H-indazol-1-yl]-benzoic Acid], for which, in data set [2], the “Absorption λmax” value stood at 328 nm and the “ε (at absorption λmax)” value came out at 22622 M⁻¹ cm⁻¹. For the same molecule, in data set [1], the “Emission range in parenthesis” value is given as 450-620 nm, the “Emission λmax” value is reported as 524 nm, the “Excitation range in parenthesis” value is 320-360 nm and the “Excitation λmax” value was 331 nm.
For the molecule `NC(=O)c1ccc(-c2nn(-c3ccc(C(=O)O)cc3)c3ccc([N+](=O)[O-])cc23)cc1` [4l, 4-[3-(4-carbamoyl-phenyl)-5-nitro-1H-indazol-1-yl]-benzoic Acid], in data set [2], the “Absorption λmax” value is listed as 326 nm and the “ε (at absorption λmax)” value was found to be 17252 M⁻¹ cm⁻¹. Moreover, in data set [1], the “Emission range in parenthesis” value is 450-620 nm, the “Emission λmax” value worked out at 527 nm, the “Excitation range in parenthesis” value is given as 310-360 nm and the “Excitation λmax” value came out at 331 nm.
